Measurements taken from patent US9963458B2, “Indole and indoline-type piperidine compounds and uses thereof” (priority 2012, dated 2018).

How the values were obtained:
Assay type in all cases: in vitro ADME
Conditions in all cases: procedure of Example 14
CYP1A2 = target: T1, CYP1A2 (Homo sapiens, UniProt P05177); assay: Cytochrome P450 inhibition, pooled human hepatic microsome
T1 sequence (P05177 1-516): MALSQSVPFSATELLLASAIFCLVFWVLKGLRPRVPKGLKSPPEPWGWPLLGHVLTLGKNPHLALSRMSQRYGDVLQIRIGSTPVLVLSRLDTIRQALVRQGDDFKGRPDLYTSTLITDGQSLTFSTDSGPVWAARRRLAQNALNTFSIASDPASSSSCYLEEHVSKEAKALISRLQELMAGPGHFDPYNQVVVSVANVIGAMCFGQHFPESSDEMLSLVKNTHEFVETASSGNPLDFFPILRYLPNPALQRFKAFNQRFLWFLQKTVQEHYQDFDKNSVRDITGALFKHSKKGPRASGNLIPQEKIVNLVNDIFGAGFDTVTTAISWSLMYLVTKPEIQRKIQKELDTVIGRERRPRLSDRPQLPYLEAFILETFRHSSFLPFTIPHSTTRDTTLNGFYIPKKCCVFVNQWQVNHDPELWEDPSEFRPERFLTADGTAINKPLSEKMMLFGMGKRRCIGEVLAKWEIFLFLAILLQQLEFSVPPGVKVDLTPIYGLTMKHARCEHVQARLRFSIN

CYP2C9 = target: T2, CYP2C9 (Homo sapiens, UniProt P11712); assay: as above
T2 construct: 0.2 mg protein/mL pooled human hepatic microsome enzyme; from tissue; host or cells: pooled human hepatic microsomes
T2 sequence (P11712 whole entry): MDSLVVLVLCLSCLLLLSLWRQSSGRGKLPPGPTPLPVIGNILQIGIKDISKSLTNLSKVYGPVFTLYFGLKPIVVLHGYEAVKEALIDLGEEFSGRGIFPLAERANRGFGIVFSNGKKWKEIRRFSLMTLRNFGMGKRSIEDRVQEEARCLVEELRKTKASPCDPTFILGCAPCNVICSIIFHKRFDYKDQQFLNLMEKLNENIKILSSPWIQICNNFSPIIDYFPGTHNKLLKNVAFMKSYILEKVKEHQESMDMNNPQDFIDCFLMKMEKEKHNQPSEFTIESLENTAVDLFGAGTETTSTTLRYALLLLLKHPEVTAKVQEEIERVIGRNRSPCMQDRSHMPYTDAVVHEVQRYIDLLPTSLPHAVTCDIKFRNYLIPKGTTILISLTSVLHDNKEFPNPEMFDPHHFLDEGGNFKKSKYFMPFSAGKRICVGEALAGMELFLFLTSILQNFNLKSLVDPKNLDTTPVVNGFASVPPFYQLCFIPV

CYP2D6 = target: T3, CYP2D6 (Homo sapiens, UniProt P10635); assay: Cytochrome P450 inhibition, pooled human hepatic microsome (O-demethylation of dextromethorphan)
T3 construct: 0.2 mg protein/mL pooled human hepatic microsome enzyme; from tissue; host or cells: pooled human hepatic microsomes
T3 sequence (P10635 whole entry): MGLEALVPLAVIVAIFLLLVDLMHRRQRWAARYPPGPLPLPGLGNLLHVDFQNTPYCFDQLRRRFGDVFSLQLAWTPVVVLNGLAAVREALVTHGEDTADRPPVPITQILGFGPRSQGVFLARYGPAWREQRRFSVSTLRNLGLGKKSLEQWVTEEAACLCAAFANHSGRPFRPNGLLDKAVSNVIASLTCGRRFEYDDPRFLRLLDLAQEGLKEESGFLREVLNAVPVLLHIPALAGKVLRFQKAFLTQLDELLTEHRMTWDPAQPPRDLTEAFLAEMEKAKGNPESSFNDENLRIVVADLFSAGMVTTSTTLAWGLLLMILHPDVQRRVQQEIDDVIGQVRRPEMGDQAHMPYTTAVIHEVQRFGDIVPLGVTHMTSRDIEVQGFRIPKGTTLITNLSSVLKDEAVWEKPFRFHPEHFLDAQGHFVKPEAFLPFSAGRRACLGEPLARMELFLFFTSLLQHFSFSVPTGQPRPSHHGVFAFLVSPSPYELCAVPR

CYP3A4 = target: T4, CYP3A4 (Homo sapiens, UniProt P08684); assay: Cytochrome P450 inhibition, pooled human hepatic microsome
T4 construct: 0.2 mg protein/mL pooled human hepatic microsome enzyme; from tissue; host or cells: pooled human hepatic microsomes
T4 sequence (P08684 whole entry): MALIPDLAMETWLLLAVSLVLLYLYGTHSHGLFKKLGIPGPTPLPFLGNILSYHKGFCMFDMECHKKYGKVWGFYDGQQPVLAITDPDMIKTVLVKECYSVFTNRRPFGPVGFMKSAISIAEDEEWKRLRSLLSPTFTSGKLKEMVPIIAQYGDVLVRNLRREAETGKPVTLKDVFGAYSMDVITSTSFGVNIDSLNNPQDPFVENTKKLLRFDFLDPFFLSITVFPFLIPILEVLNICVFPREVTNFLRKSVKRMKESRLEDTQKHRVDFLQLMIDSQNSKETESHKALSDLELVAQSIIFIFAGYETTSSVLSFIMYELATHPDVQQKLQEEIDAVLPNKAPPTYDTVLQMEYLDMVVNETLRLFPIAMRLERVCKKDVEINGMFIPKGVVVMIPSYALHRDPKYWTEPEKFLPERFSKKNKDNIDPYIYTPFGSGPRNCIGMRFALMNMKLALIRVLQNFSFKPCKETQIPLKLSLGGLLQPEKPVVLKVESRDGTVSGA

SMILES	IC50 (CYP1A2)	IC50 (CYP2C9)	IC50 (CYP2D6)	IC50 (CYP3A4)
O=C(O)Cc1cn([C@H]2C[C@H]3CCC[C@@H](C2)N3[C@H]2C[C@@H]3CCC[C@@H](C3)C2)c2ccccc12 [Compound 7]	> 20 µM	> 20 µM	14.6 µM	> 20 µM
c1ccc2c(c1)ccn2[C@H]1C[C@H]2CCC[C@@H](C1)N2[C@H]1C[C@@H]2CCC[C@@H](C2)C1 [Compound 11]	> 20 µM	> 20 µM	> 20 µM	> 20 µM
O=C(O)Cc1cn([C@H]2C[C@H]3CCC[C@@H](C2)N3C2CCCCCCCCC2)c2ccccc12 [Compound 23, 2-(1-((1R,3r,5S)-9-cyclodecyl-9-azabicyclo[3.3.1]nonan-3-yl)-1H-indol-3-yl)acetic acid]	> 20 µM	> 20 µM	1.15 µM	> 20 µM
